Data: patent US11312726B2, “Thienodiazepine derivatives and application thereof” (priority 2017, dated 2022)

Legend:
[1] = target: BRD4-BD2 (Homo sapiens (Human), UniProt O60885); experiment: BRD4 biochemical activity test (TR-FRET), BD2; details: read-out: BRD4 Binding (BD2), IC50
From the text: (§1) BRD4 Biochemical Activity Test
(§2) 1) BRD4-BD1 and BRD4-BD2 proteins of BPS Company, polypeptide of ANASPEC Company, and test reagent of PerkinElmer Company were used in the experiments;
(§3) 2) The TR-FRET experimental principle was used in the experiment to screen compounds.
(§4) 3) Relevant control compounds
(§5) 1) Preparation of the Compound Plate:
(§6) Preparation of the compound plate in the experiment was achieved by Echo:
(§7) 2) Preparation of Reaction Reagents:
(§8) Relevant reaction reagents should be prepared on the day of the experiment:
(§9) a) Formulation of 1× assay buffer;
(§10) b) Formulation of 3× component solution for the experiment: […]
(§11) 1. The reagent was taken out and placed on ice to naturally melt for later use;
(§12) 2. “Solution A” (protein solution), “solution B” (polypeptide solution), and “solution C” (test reagent solution) used in the experiment were formulated with the 1× assay buffer, and during the formation of the 3× solution from the components used in the experiment reaction system, the amounts of solutions A, B and C must be enough for the required amounts in the experiment.
(§13) 3) Experimental Operation Steps:
(§14) The experiment plate was a plate that contained a gradient concentration of the compound and a corresponding DMSO solution and was prepared with ECHO before the experiment:
(§15) a) The experiment plate was taken out, and 5 μL/well of “solution A” (protein solution) was added to columns 2-23 of the experiment plate, then 5 μL/well of 1× assay buffer was added to columns 1 and 24 of the experiment plate, and columns 1 and 24 were used as Min control in the experiment system;
(§16) b) Centrifugation at 1000 rpm was carried out for 30 seconds;
(§17) c) The plate was incubated at 23° C. for 20 minutes;
(§18) d) After 20 minutes of incubation, 5 μL/well of “solution B” (polypeptide solution) was added to columns 1-24 of the experiment plate;
(§19) e) Centrifugation at 1000 rpm was carried out for 30 seconds;
(§20) f) The plate was incubated at 23° C. for 20 minutes;
(§21) g) After 20 minutes of incubation, 5 μL/well of “solution C” (test reagent solution) was added to columns 1-24 of the experiment plate;
(§22) h) Centrifugation at 1000 rpm was carried out for 30 seconds;
(§23) i) The plate was incubated at 23° C. for 40 minutes;
(§24) j) The experiment plate was placed on EnVision to read the plate.
(§25) a) The corresponding Max control and Min control of each experiment plate were used to convert to the Z′ value of the experiment plate, and the Z′ value of each plate was ensured to be >0.5;
(§26) b) The IC50 value was calculated from the signal of the control compound by XLFIT5, and ensured to be maintained within 3 times of the average value of historical data.

[2] = target: BRD4-BD1 (Homo sapiens (Human), UniProt O60885); experiment: BRD4 biochemical activity test (TR-FRET), BD1; details: read-out: BRD4 Binding (BD1), IC50
From the text: as §1, §2, §3, §4, §5, §6, §7, §8, §9, §10, §11, §12, §13, §14, §15, §16, §17, §18, §19, §20, §21, §22, §23, §24, §25, §26

Row | SMILES | IC50 [1] [nM] | IC50 [2] [nM]
1 | Cc1sc2c(c1C)C(c1ccc(Cl)cc1)=N[C@@H](CC(=O)Nc1ccc3c(c1)C(=O)NC3)c1nnc(C)n1-2 [Compound 1] | 11 | 65
2 | Cc1sc2c(c1C)C(c1ccc(Cl)cc1)=N[C@@H](CC(=O)Nc1ccc3c(c1)CNC3=O)c1nnc(C)n1-2 [Compound 2] | 10 | 49
3 | Cc1sc2c(c1C)C(c1ccc(Cl)cc1)=N[C@@H](CC(=O)Nc1ccn3c(=O)c(O)cnc3c1)c1nnc(C)n1-2 [Compound 5] | 9 | 83
4 | Cc1sc2c(c1C)C(c1ccc(Cl)cc1)=N[C@@H](CC(=O)Nc1n[nH]c(=O)c3ccccc13)c1nnc(C)n1-2 [Compound 8] | 11 | 51
5 | Cc1sc2c(c1C)C(c1ccc(Cl)cc1)=N[C@@H](CC(=O)Nc1ccc3c(c1)C1(CC1)C(=O)N3)c1nnc(C)n1-2 [Compound 9] | 11 | 49
6 | Cc1sc2c(c1C)C(c1ccc(Cl)cc1)=N[C@@H](CC(=O)Nc1ccc3c(c1)C(=O)NC31CC1)c1nnc(C)n1-2 [Compound 10] | 16 | 81
7 | Cc1sc2c(c1C)C(c1ccc(Cl)cc1)=N[C@@H](CC(=O)Nc1ccc3c(c1)C1(CC1)NC3=O)c1nnc(C)n1-2 [Compound 12] | 12 | 40
8 | Cc1sc2c(c1C)C(c1ccc(Cl)cc1)=N[C@@H](CC(=O)Nc1ccc3c(c1)COC3)c1nnc(C)n1-2 [Compound 16] | 12 | 60
9 | CC(=O)N1Cc2ccc(NC(=O)C[C@@H]3N=C(c4ccc(Cl)cc4)c4c(sc(C)c4C)-n4c(C)nnc43)cc2C1 [Compound 17] | 7 | 24
10 | Cc1sc2c(c1C)C(c1ccc(Cl)cc1)=N[C@@H](CC(=O)Nc1ccc3c(c1)CNC3)c1nnc(C)n1-2 [Compound 18] | 8 | 23
11 | Cc1sc2c(c1C)C(c1ccc(Cl)cc1)=N[C@@H](CC(=O)Nc1ccc3c(c1)CN(S(C)(=O)=O)C3)c1nnc(C)n1-2 [Compound 19] | 8 | 49
12 | Cc1sc2c(c1C)C(c1ccc(Cl)cc1)=N[C@@H](CC(=O)Nc1ccc3c(c1)CN(C(N)=O)C3)c1nnc(C)n1-2 [Compound 20] | 11 | 169
13 | Cc1sc2c(c1C)C(c1ccc(Cl)cc1)=N[C@@H](CC(=O)Nc1ccc3c(c1)CC(F)(F)C3)c1nnc(C)n1-2 [Compound 21] | 34 | 522
14 | Cc1sc2c(c1C)C(c1ccc(Cl)cc1)=N[C@@H](CC(=O)Nc1ccc3c(c1)C(=O)SC3)c1nnc(C)n1-2 [Compound 22] | 10 | 199
15 | Cc1sc2c(c1C)C(c1ccc(Cl)cc1)=N[C@@H](CC(=O)Nc1ccc3c(c1)C[C@@H](F)C3)c1nnc(C)n1-2 [Compound 24] | 17 | 206
16 | Cc1sc2c(c1C)C(c1ccc(Cl)cc1)=N[C@@H](CC(=O)Nc1ccc3c(c1C)COC3)c1nnc(C)n1-2 [Compound 25] | 20 | 79
17 | Cc1cc2c(cc1NC(=O)C[C@@H]1N=C(c3ccc(Cl)cc3)c3c(sc(C)c3C)-n3c(C)nnc31)COC2 [Compound 26] | 30 | 112
18 | Cc1sc2c(c1C)C(c1ccc(Cl)cc1)=N[C@@H](CC(=O)Nc1ccc3c(c1)CC1(COC1)C3)c1nnc(C)n1-2 [Compound 27] | 9 | 55
19 | Cc1sc2c(c1C)C(c1ccc(Cl)cc1)=N[C@@H](CC(=O)Nc1cc3c(cc1Cl)COC3)c1nnc(C)n1-2 [Compound 28] | 15 | 60
20 | Cc1sc2c(c1C)C(c1ccc(Cl)cc1)=N[C@@H](CC(=O)Nc1cc3c(cc1F)COC3)c1nnc(C)n1-2 [Compound 29] | 16 | 74
21 | Cc1sc2c(c1C)C(c1ccc(Cl)cc1)=N[C@@H](CC(=O)Nc1ccc3c(c1)C(=O)OC3)c1nnc(C)n1-2 [Compound 30] | 9 | 51
22 | Cc1sc2c(c1C)C(c1ccc(Cl)cc1)=N[C@@H](CC(=O)Nc1ccc3c(c1)OCCOCCOCCO3)c1nnc(C)n1-2 [Compound 31] | 5 | 37
23 | Cc1sc2c(c1C)C(c1ccc(Cl)cc1)=N[C@@H](CC(=O)Nc1ccc3nonc3c1)c1nnc(C)n1-2 [Compound 33] | 19 | 248
24 | Cc1sc2c(c1C)C(c1ccc(Cl)cc1)=N[C@@H](CC(=O)Nc1ccc3c(c1)[C@H]1CC[C@@H]3O1)c1nnc(C)n1-2 [Compound 35] | 12 | 155
25 | Cc1sc2c(c1C)C(c1ccc(Cl)cc1)=N[C@@H](CC(=O)Nc1ccc3c(c1)C(=O)NC3=O)c1nnc(C)n1-2 [Compound 36] | 10 | 126
26 | Cc1sc2c(c1C)C(c1ccc(Cl)cc1)=N[C@@H](CC(=O)Nc1ccc3c(c1)C(C)(C)OC3=O)c1nnc(C)n1-2 [Compound 37] | 11 | 148
